Experimental data: patent US6080780A, “Use of nitroflavonoids for the treatment of anxiety” (University of Strathclyde, priority 1995, dated 2000)
Entries after “also recorded” stand apart in the source; their conditions may differ. Where two headings read alike, the source gives them in different places.

Key:
[1] = tested on: rats; assay: Inhibitory avoidance test in rats; assay type: in vivo, rat
Protocol: This test was performed according to Izquierdo et al., (1990). The training apparatus was a 50×25×25 cm acrylic box with a frontal glass panel and a floor made of parallel 1 mm caliber bronze bars spaced […] apart. A 5 cm high, 7 cm wide formica platform was placed on the loft extreme of the box. Rats were placed on the platform and their latency to step-down placing their four paws on the grid was measured. On stepping-down they received a 0.35 mA, 2 s scrambled footshock and were withdrawn from the box (training session). The test session was carried out 20 h later and was similar to the training session in all respects except that the footshock was omitted. Test step-down latency (to a ceiling of 180 s) was taken as a measure of retention of inhibitory avoidance (Izquierdo et al., 1990).

[2] = tested on: β adrenergic receptors; assay: [3H]-dihidroalprenolol binding; conditions: 20 μM; data not shown
Protocol: (§1) Additional binding studies were performed as described elsewhere: [^3 ]-prazosin binding for α1 adrenergic receptors (Medina et al., 1984), [^3 H]-dihidroalprenolol binding for β adrenergic receptors (Medina et al. 1984), [^3 H]-quinuclinidyl benzylate binding for muscarinic cholinergic receptors (Jerusalinksy et al., 1983), [^3 H]-muscimol binding for GABAλ receptors (Medina et al., 1983) and [^3 H]-8-Hydroxydipropylaminotetralin ([^3 H]--OH--DPAT) binding for serotonin (5-HTlλ) receptors (Nenonene et al., 1984).

[3] = tested on: benzodiazepine (BDZ-R) receptor; assay: 3H-Flunitrazepam binding to extensively washed bovine cerebral cortical membranes
Protocol: Non-specific nitration of the flavone nucleus yielded the two nitrated flavone (II) and (IIa). […] Briefly, ^3 H-FNZ binding was carried out as described by Levy de Stein, M., Medina, J. H., De Robertis E., Mol. Brain Res. 1985, 5, 9-15. In brief, for each assay, triplicate samples of the membranes, containing 0.2 to 0.4 mg protein were suspended in a final volume of 1 mL of 0.25 mM Tris-HCl buffer, pH 7.3. The incubation was carried out at 4° C. for 60 minutes with 0.6 nM ^3 -FNZ. To study the binding saturation, a range of 0.3 to 10 nM ^3 H-FNZ was used. Non-specific binding was determined in parallel incubations in the presence of 3 μM FNZ, and represented 5-15% of total. The assays were terminated by filtration under vacuum though Whatman GF/A glass-fiber filters, and three washes with 3 mL each of incubation medium. Filters were dried and counted after the addition of 5 mL of 2,5-diphenyloxazole/xylene as scintillation fluid. Bovine cerebral cortical membranes were treated substantially following the method of Medina, J. H., De Robertis, E. J., J. Neurochem. 1985, 44, 1340-1345.

[4] = target: central benzodiazepine receptors; assay: Autoradiographic [3H]-FNZ displacement on rat brain sections; assay type: binding, rat (Wistar); conditions: for Ki: n=3, read-out: Ki, [3H]-FNZ binding, autoradiography
Protocol: Wistar rats were decapitated and brains rapidly removed. Sagittal sections (15 μm in thickness) were prepared at -20° C. using a microtome-cryostat. The tissue slices were kept frozen at -70° C. until used. For DNF displacement curves to [^3 H]--FNZ binding (0.65 nM), tissue sections were incubated for 60 min at 4° C. in 25 mM Tris HCl buffer, pH 7.4, in presence of different concentrations of DNF (1-600 nM). For non-specific binding we used 10 μM FNZ. The incubation was terminated by rinsing the sections for two min in cold buffer. Sections were briefly dipped in cold distilled water and dried rapidly under a stream of cold air (Niddam et al., 1987).
Autoradiograms were generated by apposing the slide-mounted tissue section to tritium-sensitive film (Hyperfilm Amersham) in a light-proof X-ray cassette at 4° C. for two weeks.
The optical densities from different brain regions were converted first to radioactive units and then to fmol/mm^2 using the [^3 H] standards on the film with the aid of a computerized image densitometric analysis system (MCID 4.02). The values were normalized and the Ki values were determined using a computerized program (Graph-Pad Prism) Bernabeu et al., 1995; Cammarota et al., 1995).

[5] = tested on: α1 adrenergic receptors; assay: [3H]-prazosin binding; conditions: 20 μM; data not shown
Protocol: as §1

[6] = tested on: mice; assay: Horizontal wire test in mice; assay type: in vivo, male Swiss mice
Protocol: Adult male Wistar rats weighing 250 g were used for biochemical experiments. Adult male Swiss male weighing 25-30 g were used for pharmacological assays except for inhibitory avoidance and tail flick tests were done in rats. Animals were housed in a controlled environment, with free access to food and water and maintained on a 12 h/12 h day/night cycle.
This test was carried out as previously described (Viola et al., 1994; Wolfman et al., 1994; Viola et al., 1995). The test took place after two trials, performed at 5 min intervals. A myorelaxant drug will impair mice to grasp the wire (Bonetti et al., 1982). The effect of DNF )1 mg/kg) on DZ-induced myorelaxation was also determined.

[7] = target: central benzodiazepine receptors (BDZ-Rs); assay: 3H-FNZ binding to rat brain synaptosomal membranes (Section 3); conditions: rat cerebral cortex; read-out: Ki, 3H-FNZ binding
Protocol: In brief, for each assay, triplicate samples of the membranes, containing 0.2 to 0.4 mg protein were suspended in a final volume of 1 mL of 0.25 mM Tris--HCl buffer, pH 7.3. The incubation was carried out at 4° C. for 60 min with 0.6 nM ^3 H--FNZ. to study the binding saturation, a range of 0.3 to 10 nM ^3 H--FNZ was used. […] The assays were terminated by filtration under vacuum through Whatman GF/A glass-fiber filters, and three washes with 3 mL each of incubation medium. Filters were dried and counted after the addition of 5 mL of 2,5-diphenyloxazole/xylene as scintillation fluid.
The binding of ^3 H--FNZ was carried out as for (i) above.

[8] = tested on: mice; assay: Pentylenetetrazole (PTZ)-induced seizures; assay type: in vivo
Protocol: The effects of DNF on pentylenetetrazole (PTZ)--induced convulsions were evaluated according to Medina et al., (1990) with slight modifications. PTZ (200 mg/kg) was administered i.p. to mice 15 min after injection of drug or vehicle. The number of mice presenting clonic convulsions was determined.
Data are expressed as the percentage of mice presenting clonic or tonic-clonic seizures. ^3 number of animals per group.

For O=c1cc(-c2cccc([N+](=O)[O-])c2)oc2ccc([N+](=O)[O-])cc12 [Compound (II), 6,3'-dinitroflavone], the “test session performance of inhibitory avoidance” value ([1]; rats, i.p., 100 μg/kg, pre or posttraining) was “no effect”, the amnesic effects ([1]; up to 10 mg/kg as worded) was “did not evidence anticonvulsant, myorelaxant, amnesic” and the “displacement of [3H]-dihidroalprenolol binding” value [2] was “did not displace”. For the same compound, the “Scatchard analysis of saturation curves (type of interaction)” value ([3]; bovine membranes, compound (II) 20 nM (FIG. 1)) was “competitive interaction showing a decline in the apparent affinity without changes in the maximal number of sites (Bmax)”, the Ki ([3]; read-out: Ki, inhibition of 3H-FNZ binding, bovine cerebral cortical membranes, 0.6 nM 3H-FNZ, 4° C., 60 min, n=7) was 12 ± 1.7 nM and the Ki ([4]; dentate gyrus) was 82.2 ± 7.6 nM. For the same compound, the Ki ([4]; parietal cortex) was 30.1 ± 2.6 nM, the “potency to displace [3H]-FNZ, cerebellum vs dentate gyrus” value ([4]; ratio) was 5 times and the Ki ([4]; striatum) was 53.7 ± 7.3 nM. For the same compound, the “displacement of [3H]-prazosin binding” value [5] was “did not displace”, the “effect on DZ-induced myorelaxation” value ([6]; mice, DNF plus DZ (1 mg/kg), listed as DNF) was “counteracted; also recorded: able to reverse the myorelaxant effect of the full agonist DZ; also recorded: prevents the muscle relaxation effect of a full benzodiazepine receptor agonist” and the “animals showing myorelaxant effect, DNF plus DZ” value ([6]; mice, i.p., DNF plus DZ (1 mg/kg), p<0.001) was 2 animals out of 15. The “percentage of mice grasping the wire” value ([6]; mice, i.p., up to 10 mg/kg) was “did not affect the percentage of mice grasping”, the myorelaxant effects ([6]; up to 10 mg/kg) was “did not evidence anticonvulsant, myorelaxant” and the Ki [7] was 20 nM. For the same compound, the “% of convulsing mice” value ([8]; DNF 0.03 mg/kg, n=6) was 100%, the “% of convulsing mice” value ([8]; DNF 0.1 mg/kg, n=12) was 75% and the “% of convulsing mice” value ([8]; DNF 0.3 mg/kg, n=15) was 80%. For the same compound, the “% of convulsing mice” value ([8]; DNF 1.0 mg/kg, n=13) was 92.4%, the “% of convulsing mice” value ([8]; DNF 3.0 mg/kg, n=5) was 100% and the “% of convulsing mice” value ([8]; DNF 6.0 mg/kg, n=7) was 100%. For the same compound, the “prevention of PTZ-induced seizures” value ([8]; mice, 30 μg/kg-6 mg/kg, PTZ 200 mg/kg) was “did not prevent the seizures” and the anticonvulsant effects ([8]; up to 10 mg/kg) was “did not evidence anticonvulsant”.
